Data as given in patent US6964983B2, “Compounds that modulate PPAR activity and methods for their preparation” (Warner-Lambert Company, LLC, priority 2002, dated 2005).
Like-named read-outs stand apart in the source and are kept apart here.

Key:
[1] = molecular target: T1, hPPARβ (Homo sapiens, UniProt Q03181); test: Transient transfection assay in HepG2 cells, Gal4-hPPARβ chimeric receptor, luciferase reporter; assay type: cell-based
T1 sequence (Q03181 171-441 limits assumed): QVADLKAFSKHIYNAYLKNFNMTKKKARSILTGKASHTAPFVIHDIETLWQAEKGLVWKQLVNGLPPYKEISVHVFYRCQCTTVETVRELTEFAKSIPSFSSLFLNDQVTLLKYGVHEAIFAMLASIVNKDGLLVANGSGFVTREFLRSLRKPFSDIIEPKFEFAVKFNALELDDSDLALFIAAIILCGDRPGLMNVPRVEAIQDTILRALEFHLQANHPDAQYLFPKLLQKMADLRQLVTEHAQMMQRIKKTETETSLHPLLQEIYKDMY
Protocol: 1. Test A. Transient Transfections Assay using the HepG2 Hepatoma Cell Line.
HepG2 cells were transiently transfected with an expression plasmids encoding hPPARα, hPPARβ or mPPARγ chimeric receptors and a reporter containing the yeast upstream activating sequence (UAS) upstream of the viral E1B promoter controlling a luciferase reporter gene. In addition, the plasmid pRSVβ-gal was used to control for transfection efficiency. HepG2 cells were grown in DMEM supplemented with 10% FBS and 1 μM non-essential amino acid. On the first day, cells were split into 100 mm dishes at 2.5×10^6/dish and incubated overnight at 37° C./5% CO2. On the second day the cells were transiently transfected with plasmid DNA encoding a chimeric receptor, the luciferase reporter gene; and β-gal. For each 100 mm dish, 15 μg of lucifease reporter (PG5E1b) DNA, 15 μg of Gal4-PPAR chimeric receptor DNA, and 1.5 μg of β-gal plasmid DNA were mixed with 1.4 ml of opti-MEM in the tube. 28 μl of LipoFectamine-2000 reagent was added to 1.4 ml of opti-MEM in the tube, and incubate for 5 min at RT. The diluted Lipofectamine-2000 reagent was combined with the DNA mixture, and incubate for 20 min at RT. After fresh medium was added to each 100 mm dish of cells, 2.8 ml of Lipofectamine2000-DNA mixture was added dropwise to the 100 mm dish containing 14 ml of medium, and incubate 37° C. overnight. On day three cells were trypsinized off the 100 mm dishes and re-plated on 96 well plates. Cells were plated at 2.5×10^4 cells per well in 150 μl of media and 50 μl of compound diluted by media was added. The test compound added were in the range from 50 μM to 50 pM. After addition of compounds, the plates were incubated at 37° C. for 24 hours. Subsequently cells were washed with once with 100 μl of PBS, lysed, and processed for measuring luciferase and β-gal activity using Dual-Light luciferase kit from Tropix ®, according to the manufacturer's recommendations, on an EG&G Bethold MicroLumat LB96P luminometer. EC50 values were obtained using the GraphPad Prism™ program.

[2] = Hep G2-hBeta EC50, 24 hours incubation, read-out: EC50β nM (Group)

SMILES | EC50 [1, 2] | melting point | EC50 [1]
COc1cc(OCC(=O)O)c(C)cc1SCc1ccc(-c2c(C)cc(C)cc2C)cc1 [Example 5, [5-Methoxy-2-methyl-4-(2′,4′,6′-trimethyl-biphenyl-4-ylmethylsulfanyl)-phenoxy]-acetic acid] | 1000 to 2000 nM | 141 °C | –
O=C(O)COc1ccc(SCc2ccc(-c3ccc(C(F)(F)F)cc3)cc2)c2c1CCC2 [Example 12, [7-(4′-Trifluoromethyl-biphenyl-4-ylmethylsulfanyl)-indan-4-yloxy]-acetic acid] | < 300 nM | 158 to 159 °C | –
Cc1cc(SCc2ccc(OCc3ccc(C(F)(F)F)cc3)cc2)ccc1OCC(=O)O [Example 15, {2-Methyl-4-[4-(4-trifluoromethyl-benzyloxy)-benzylsulfanyl]-phenoxy}-acetic acid] | < 300 nM | 133 °C | –
O=C(O)COc1ccc(SCc2ccc(-c3ccc(C(F)(F)F)cn3)cc2)c2c1CCC2 [Example 26, {7-[4-(5-Trifluoromethyl-pyridin-2-yl)-benzylsulfanyl]-indan-4-yloxy}-acetic acid] | < 300 nM | 220 °C (dec.) | –
Cc1cc(SCc2ccc(OCc3ccc(Cl)cc3)cc2)ccc1OCC(=O)O [Example 58, {4-[4-(4-Chloro-benzyloxy)-benzylsulfanyl]-2-methyl-phenoxy}-acetic acid] | 2000 to 5000 nM | 164 °C | –
Cc1cc(SCc2ccc(OCc3ccccn3)cc2)ccc1OCC(=O)O [Example 60, {2-Methyl-4-[4-(pyridine-2-ylmethoxy)-benzylsulfanyl]-phenoxy}-acetic acid] | > 5000 nM | 150 °C | –
Cc1cc(SCc2ccc(OCc3ccc(C(F)(F)F)cc3)cc2)c(Cl)cc1OCC(=O)O [Example 61, {5-Chloro-2-methyl-4-[4-(4-trifluoromethyl-benzyloxy)-benzylsulfanyl]-phenoxy}-acetic acid] | 300 to 500 nM | 142 to 143 °C | –
CC(C)(C)c1ccc(COc2ccc(CSc3ccc(OCC(=O)O)c4c3CCC4)cc2)cc1 [Example 67, {7-[4-(4-tert-Butyl-benzyloxy)-benzylsulfanyl]-indan-4-yloxy}-acetic acid] | – | 152 to 153 °C | < 300 nM
O=C(O)COc1ccc(SCc2cc(-c3ccccc3Cl)on2)c2c1CCC2 [Example 87, {7-[5-(2-Chloro-phenyl)-isoxazol-3-ylmethylsulfanyl]-indan-4-yloxy}-acetic acid] | 2000 to 5000 nM | 161 to 162 °C | –
Cc1onc(-c2c(Cl)cccc2Cl)c1CSc1ccc(OCC(=O)O)c2c1CCC2 [Example 88, {7-[3-(2,6-Dichloro-phenyl)-5-methyl-isoxazol-4-ylmethylsulfanyl]-indan-4-yloxy}-acetic acid] | > 5000 nM | 151 to 152 °C | –
O=C(O)COc1ccc(SCc2cc(-c3ccc(C(F)(F)F)cc3)no2)c2c1CCC2 [Example 89, {7-[3-(4-Trifluoromethyl-phenyl)-isoxazol-5-ylmethylsulfanyl]-indan-4-yloxy}-acetic acid] | 1000 to 2000 nM | 166 to 168 °C | –
O=C(O)COc1ccc(SCCc2ccc(-c3ccc(C(F)(F)F)cc3)cc2)c2c1CCC2 [Example 90, {7-[2-(4′-Trifluoromethyl-biphenyl-4-yl)-ethylsulfanyl]-indan-4-yloxy}-acetic acid] | 500 to 1000 nM | 170 to 172 °C | –
O=C(O)COc1ccc(CCc2ccc(-c3ccc(C(F)(F)F)cc3)cc2)c2c1CCC2 [Example 91, {7-[2-(4′-Trifluoromethyl-biphenyl-4-yl)-ethyl]-indan-4-yloxy}-acetic acid] | 2000 to 5000 nM | 188 to 190 °C | –
O=C(O)COc1ccc(SCc2ccc(-c3ccc(C(F)(F)F)cc3)cc2)c2c1CCCO2 [Example 93, [8-(4′-Trifluoromethyl-biphenyl-4-ylmethylsulfanyl)-chroman-5-yloxy]-acetic acid] | 500 to 1000 nM | 170 to 172 °C | –
O=C(O)COc1ccc(SCc2cc(-c3ccc(Cl)cc3)no2)c2c1CCC2 [Example 98, {7-[3-(4-Chloro-phenyl)-isoxazol-5-ylmethylsulfanyl]-indan-4-yloxy}-acetic acid] | 2000 to 5000 nM | 158 to 160 °C | –
Cc1cc(SCc2cc(-c3ccc(C(F)(F)F)cc3)on2)c(Cl)cc1OCC(=O)O [Example 99, {5-Chloro-2-methyl-4-[5-(4-trifluoromethyl-phenyl)-isoxazol-3-ylmethylsulfanyl]-phenoxy}-acetic acid] | 300 to 500 nM | 180 to 182 °C | –

Second part, led by results:

EC50 [1, 2] | melting point | SMILES | EC50 [1]
> 5000 nM | 165 to 167 °C | Cc1cc(SCc2ccc(OCc3ccc(C(F)(F)F)cc3)cc2)c2c(c1OCC(=O)O)CCC2 [Example 64, {5-Methyl-7-[4-(4-trifluoromethyl-benzyloxy)-benzylsulfanyl]-indan-4-yloxy}-acetic acid] | –
> 5000 nM | 153 to 155 °C | O=C(O)COc1ccc(SCc2ccc(OCc3ccc(F)cc3)cc2)c2c1CCC2 [Example 65] | –
> 5000 nM | 158 to 160 °C | O=C(O)COc1ccc(SCc2ccc(OCc3ccc(F)cc3F)cc2)c2c1CCC2 [Example 66, {7-[4-(2,4-Difluoro-benzyloxy)-benzylsulfanyl]-indan-4-yloxy}-acetic acid] | –
1000 to 2000 nM | 183 to 185 °C | COc1ccc(COc2ccc(CSc3ccc(OCC(=O)O)c4c3CCC4)cc2)cc1 [Example 68, {7-[4-(4-Methoxy-benzyloxy)-benzylsulfanyl]-indan-4-yloxy}-acetic acid] | –
2000 to 5000 nM | 145 to 147 °C | O=C(O)COc1ccc(SCc2ccc(OCc3ccccc3)cc2)c2c1CCC2 [Example 69, [7-(4-Benzyloxy-benzylsulfanyl)-indan-4-yloxy]-acetic acid] | –
500 to 1000 nM | 170 to 172 °C | O=C(O)COc1ccc(SCc2ccc(OCc3ccc(Cl)cc3)cc2)c2c1CCC2 [Example 70, {7-[4-(4-Chloro-benzyloxy)-benzylsulfanyl]-indan-4-yloxy}-acetic acid] | –
500 to 1000 nM | 158 to 160 °C | O=C(O)COc1ccc(SCc2ccc(OCc3cc(Cl)ccc3Cl)cc2)c2c1CCC2 [Example 71, {7-[4-(2,5-Dichloro-benzyloxy)-benzylsulfanyl]-indan-4-yloxy}-acetic acid] | –
1000 to 2000 nM | 168 °C | O=C(O)COc1ccc(SCc2ccc(OCc3ccc(Cl)c(Cl)c3)cc2)c2c1CCC2 [Example 72, {7-[4-(3,4-Dichloro-benzyloxy)-benzylsulfanyl]-indan-4-yloxy}-acetic acid] | –
500 to 1000 nM | 140 to 142 °C | O=C(O)COc1ccc(SCc2ccc(OCc3ccc(OC(F)(F)F)cc3)cc2)c2c1CCC2 [Example 75, {7-[4-(4-Trifluoromethoxy-benzyloxy)-benzylsulfanyl]-indan-4-yloxy}-acetic acid] | –
1000 to 2000 nM | 125 to 127 °C | O=C(O)COc1ccc(SCc2ccc(OCc3ccc(F)cc3C(F)(F)F)cc2)c2c1CCC2 [Example 76, {7-[4-(4-Fluoro-2-trifluoromethyl-benzyloxy)-benzylsulfanyl]-indan-4-yloxy}-acetic acid] | –
300 to 500 nM | 134 to 135 °C | O=C(O)COc1ccc(SCc2ccc(OCc3cc(Cl)cc(Cl)c3)cc2)c2c1CCC2 [Example 77, {7-[4-(3,5-Dichloro-benzyloxy)-benzylsulfanyl]-indan-4-yloxy}-acetic acid] | –
300 to 500 nM | 150 to 151 °C | COc1ccc(CSc2ccc(OCC(=O)O)c3c2CCC3)cc1OCc1ccc(C(F)(F)F)cc1 [Example 78, {7-[4-Methoxy-3-(4-trifluoromethyl-benzyloxy)-benzylsulfanyl]-indan-4-yloxy}-acetic acid] | –
1000 to 2000 nM | 121 to 122 °C | O=C(O)COc1ccc(SCc2cccc(OCc3ccc(Cl)c(C(F)(F)F)c3)c2)c2c1CCC2 [Example 80, {7-[3-(4-Chloro-3-trifluoromethyl-benzyloxy)-benzylsulfanyl]-indan-4-yxoly}-acetic acid] | –
1000 to 2000 nM | 98 to 100 °C | O=C(O)COc1ccc(SCc2ccc(OCc3cc(Cl)ccc3Cl)cc2)c2c1CCCO2 [Example 85, {8-[4-(2,5-Dichloro-benzyloxy)-benzylsulfanyl]-chroman-5-yloxy}-acetic acid] | –
